Tests used:
[1] = tested on: flora and fauna in the water feature; conditions: previous treatment method of the water hazard
Source text: A golf course water hazard in Northern California contained large mats (i.e., growths) of string algae during the summer months. The algae were predominantly confined to the edges of the water body. […] Furthermore, a special permit is needed to apply toxic copper sulfate.

[2] = aqueous; cited from earlier work

SMILES | effect on flora and fauna in the water feature [1] | pH values at which decomposition significantly increases [2]
O=S(=O)([O-])[O-].[Cu+2] [copper sulfate] | killed most of the flora and fauna | –
OO [hydrogen peroxide] | – | greater than 6

Source: US20100092575A1, “Method of making treatment materials and using same to treat algae and/or pests” (priority 2004, published 2010)
